Measured values as given in patent US11739162B2, “Side chain modified peptoids useful as structure-stabilizing coatings for biomaterials” (Brookhaven Science Associates, LLC, priority 2019, dated 2023).

Legend:
[1] = test system: 15-bp dsDNA; assay: Real-time SYBR Green I (SG) fluorescence assay of duplex DNA (dsDNA); format: binding; conditions: dsDNA/peptoid complexes
Method: A15-bp dsDNA was designed with a sequence of 5′-[…]-3′ (SEQ ID NO: 124) with a complementary sequence of 5′-[…]-3′ (SEQ ID NO: 125). The dsDNA (500 μM) was formed in PBS (1×) buffer and cooled from 70° C. to room temperature over 11 h. Next, the dsDNA (100 nM) solution was mixed with different peptoid solutions at varied concentrations in PBS overnight at room temperature. Prior to measuring fluorescence, SG (1×) was added to the dsDNA/peptoid mixtures for 2 h at room temperature. The fluorescence signal was recorded from 37° C. to 85° C. at a step of 0.03° C./sec by LightCycler 480. The concentrations of only peptoids in solution were the same as those in the N/P of 8, which were 3.43 μM for PE1, PE3, PE4, PE5, and 1.85 μM for PE2, respectively.

[2] = test system: octahedra-shaped DNA origamis (OCs); assay: Negative-stained TEM imaging of peptoid-coated OCs; format: physicochemical; conditions: N/P 0.5, 0.25, 0.1; TAE 12.5 mM MgCl2
Method: Preparation of peptoid-coated OCs. The synthesized peptoids were dissolved in deionized water at a concentration of 10 mM and stored at 4° C.
Negative-stained TEM imaging. […] In brief, […] of the peptoid-coated OC (5-10 nM) solution was dropped on a carbon film for 1-3 min and the residual liquid was removed with a piece of filter paper. After that, the grid was washed with […] of deionized water followed by staining with […] of 2 wt % uranyl acetate for 15 sec. The excess liquid was removed with filter papers. TEM imaging was performed on a JEOL 1400 TEM with an acceleration voltage of 120 kV.

[3] = test system: deoxyribonuclease I (DN); assay: Nuclease degradation assays (AGE, TEM, DLS); conditions: DN 15 μg/mL, 30 min, 37° C., N/P 0.5
Method: The samples were incubated at 37° C. for 30 min at 650 rpm on a thermal cycler (Eppendorf) and characterized using AGE and negative-stained TEM imaging.

[4] = test system: trypsin; assay: Fluorescence assay for tryptic digestion of BSA; format: biochemical; conditions: trypsin 50 nM, 37° C.
Method: First, NHS-fluorescein (240 μM) and NHS-PEG-azide (60 μM) was mixed with BSA (10 μM) in PBS (1×) buffer for 3 h at room temperature. The solution was purified 8 times with PBS using a 50 kDa filter and centrifuged at 3000 rcf and at 4° C. Next, the DBCO-modified single-stranded DNA (ssHy, 5′-[…]/3DBCO/, 250 μM) (SEQ ID NO: 1) was mixed with the BSA solution (10 μM) overnight (˜12 h) at 4° C. The solution was purified 8 times with PBS using a 50 kDa filter and centrifuged at 3000 rcf at 4° C. Finally, the surface-modified BSA (200 nM) was added to the OCs (40 nM) and the solution was cooled down from 45° C. to room temperature over a time course of 60 h. The solution was purified 2 times with TAE (1×) buffer containing 12.5 mM MgCl2 using a 100 kDa filter and centrifuged at 400 rcf and at 4° C.
(1) The fluorescein-modified BSA (80 nM) solution without OCs was incubated at 37° C. in the presence or absence of trypsin (50 nM) overnight ˜12 h prior to fluorescence measurement. Fluorescence spectra were measured with excitation and emission wavelengths of 490 nm and 510-750 nm, respectively and a step size of 2 nm. […] The fluorescence kinetics were measured at λex and λem of 490 nm and 525 nm, respectively and time interval of 3 min. Fluorescence spectra were measured after 15 h at excitation and emission wavelengths of 490 nm and 510-800 nm, respectively and a step size of 2 nm.

Compound	relative performance in raising the Tm of the dsDNA (ranking) [1]	morphology / aggregation of peptoid-coated OCs (TEM) [2]	OC structure after incubation with DN (TEM) [3]	fluorescence enhancement of fluorescein labeled BSA in the presence of trypsin [4] [%]
COCCOCCOCCN(CC(N)=O)C(=O)CN(CCOC)C(=O)CN(CCOCCOCCOC)C(=O)CN(CCN)C(=O)CN(CCOCCOCCOC)C(=O)CN(CCOC)C(=O)CN(CCOCCOCCOC)C(=O)CN(CCN)C(=O)CN(CCOCCOCCOC)C(=O)CN(CCOC)C(=O)CN(CCOCCOCCOC)C(=O)CN(CCN)C(=O)CN(CCOCCOCCOC)C(=O)CN(CCOC)C(=O)CN(CCOCCOCCOC)C(=O)CN(CCN)C(=O)CN(CCOCCOCCOC)C(=O)CN(CCOC)C(=O)CN(CCOCCOCCOC)C(=O)CN(CCN)C(=O)CN(CCOCCOCCOC)C(=O)CN(CCOC)C(=O)CN(CCOCCOCCOC)C(=O)CNCCN [PE3, Nae6-Nte12 brush]	Tm (dsDNA/PE3)>Tm (dsDNA/PE5)	less aggregation than PE1	some extents of capability to preserve the origami structure	
COCCOCCOCCN(CC(N)=O)C(=O)CN(CCOCCOCCOC)C(=O)CN(CCOCCOCCOC)C(=O)CN(CCOCCOCCOC)C(=O)CN(CCOCCOCCOC)C(=O)CN(CCOCCOCCOC)C(=O)CN(CCN)C(=O)CN(CCN)C(=O)CN(CCN)C(=O)CN(CCN)C(=O)CN(CCN)C(=O)CNCCN [PE4, Nae6-Nte6 block]	Tm (dsDNA/PE2)>Tm (dsDNA/PE1)>Tm (dsDNA/PE4)		some extents of capability to preserve the origami structure	
fluorescein labeled BSA: bovine serum albumin modified with fluorescein, trypsin substrate [reference compound]				85
